According to US20250360145A1, “CSF-1R INHIBITORS AND USES THEREOF” (Myrobalan Therapeutics, Inc., priority 2022, published 2025):
Like-named read-outs stand apart in the source and are kept apart here.

What was measured:
CSF-1R = CSF-1R (Homo sapiens (Human), UniProt P07333); experiment: Biochemical HTRF kinase assay, CSF-1R; conditions: recombinant human CSF-1R;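 note: enzyme incubated with inhibitor plus a substrate and ATP mix for one hour at room temperature before HTRF detection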
[1] = test system: Ba/F3_CSF-1R (stably expressing human CSF-1R kinase); experiment: Cell proliferation assay, Ba/F3_CSF-1R; format: cell-based; conditions: BaF3, 72 h
[2] = In vivo PK study (plasma and brain exposure); parameters: species or system CD1 mouse; conditions: male; for Kp uu: CD1, brain, BBB penetration; for half-life: CD1, mouse; for clearance: read-out: IV-2mpk CL (converted); for Vd: read-out: IV-2mpk VSS; for bioavailability: p.o. 45 mg/kg vs i.v. 2 mg/kg; for Cmax: read-out: PO-45mpk Cmax; for Tmax: read-out: PO-45mpk Tmax
Protocol: The PK profiles were determined in CD1 mouse, and all the procedures and protocols were in accordance with the National Institutes of Health Guide for the Care and Use of Laboratory Animals. The CD1 mouse were purchased from JH Laboratory Animal Co. LTD. The CD1 mouse (23-30 g, 6-8 weeks, male) were randomized and divided into five groups consisting of 21 mouse per group. The test compounds that have been formulated were subjected to PK studies. The test compounds were administrated via p.o. at 45 mg/kg and i.v. at 2 mg/kg. […] The blood samples were placed on wet ice, and serum was collected after centrifugation. Serum samples were frozen and stored at −70° C. The brain samples were dried on filtrate paper, and snap frozen on dry ice and further stored at −70° C. Then, the blood samples and brain samples were further analyzed by LC-MS/MS (Triple Quad 6500+).

PDGFRβ = PDGFRβ (Homo sapiens (Human), UniProt P09619); experiment: Biochemical HTRF kinase assay, PDGFRβ; conditions: for IC50: recombinant human protein, read-out: PDGFR-1β IC50; for PDGFR-1β Fold: selectivity: IC50 of PDGFR-1β as multiple of IC50 of CSF-1R;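 for all read-outs here: kinase reaction with substrate/ATP mix run 1 h at room temperature in 384-well format, HTRF signal detection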
c-Kit = c-Kit (Homo sapiens (Human), UniProt P10721); experiment: Biochemical HTRF kinase assay, c-Kit; conditions: for IC50: recombinant human protein, read-out: cKit IC50; for cKit Fold: selectivity: IC50 of cKit as multiple of IC50 of CSF-1R;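 for all read-outs here: enzyme reaction with substrate and ATP run in 384-well plates for 1 hour at room temperature, kinase activity detected by HTRF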
[3] = Brain protein binding study; format: in vitro ADME; conditions: mouse brain homogenate, equilibrium dialysis 4 hours
Protocol: On the day of experiment, brain homogenate was thawed in water bath at room temperature and then incubated at 37° C. for 10 min before use. Pretreat the dialysis membrane according to the manufacturer's instructions: the dialysis membrane strips were soaked in ultra pure water at room temperature for approximately 1 hr. After that, each membrane strip that contains 2 membranes was separated and soaked in ethanol:water (20:80 v:v) for approximately 20 min, after which it was ready for use or was stored in the solution at 2-8° C. for up to 1 month. Prior to the experiment, the membrane was rinsed and soaked for 20 min in ultra pure water for use. Then working solutions (400 μM) of test compound and control compound were prepared. Aliquots of working solutions (3 μL) were spiked into blank matrix (597 μL) to achieve final concentrations and mixed thoroughly. Aliquots of 50 μL loading matrix containing test compound or control compound in triplicate was transferred to Sample Collection Plate, respectively. The samples were matched with opposite blank buffer to obtain a final volume of 100 μL with a volume ratio of matrix:Dialysis Buffer (1:1, v:v) in each well immediately. The stop solution was added to these T0 samples of test compound and control compound. The plate was sealed and shaked at 800 rpm for 10 min. Then these T0 samples were stored at 2-8° C. pending further process along with other post-dialysis samples. The dialysis instrument was assembled following manufacture's instructions. An aliquot of 100 μL of the loading matrix containing test compound or control compound was transferred to the donor side of each dialysis well in triplicate and 100 μL of the Dialysis Buffer was loaded to the receiver side of the well. Then the plate was rotated at approximately 100 rpm in a humidified incubator with 5% CO2 at 37±1° C. for 4 hours. At the end of the dialysis, aliquots of 50 μL samples from the buffer side and matrix side of the dialysis device were taken into new 96-well plates (Sample Collection Plates). An equal volume of opposite blank matrix (buffer or matrix) in each sample was added to reach a final volume of 100 μL with volume ratio of matrix:Dialysis Buffer at 1:1 (v:v) in each well. All samples were further processed by protein precipitation for LC/MS/MS analysis.

FLT3 = FLT3 (Homo sapiens (Human), UniProt P36888); experiment: Biochemical HTRF kinase assay, FLT3
EOC2 cell = experiment: Cell proliferation assay, EOC2; format: cell-based, mouse; conditions: Mus musculus, 72 h
[4] = test system: human iPSC-derived microglia (hiPSC-MG); experiment: hiPSC-MG survival (Presto-Blue viability); format: cell-based; conditions: 48 h treatment; for hiPSC-MG survival: FIG. 7B
primary rat microglia = experiment: Primary rat microglia survival; format: cell-based; conditions: 3 days of exposure, Iba1 staining
Source text: To assess the potency of CSF1R inhibitors disclosed herein we isolated and expanded primary brain glia from rat cortices in-vitro. This glial culture is about 20% microglia that is supported mostly by astrocytes that make up the rest of the population. The brain glia was exposed to CSF1R inhibitors for 3 days followed by paraformaldehyde fixation and immunofluorescence staining for the microglia marker, Iba1. The glial was imaged using a high-content-imager and the changes in microglia content were quantified. Using GraphPad Prism, a four-parameter logistic regression was applied to determine the potency of the CSF1R inhibitors.

[5] = serum, iv, 2 mg/kg, CD1 mouse, i.v. 2 mg/kg, read-out: IV-2mpk T1/2 (converted)
[6] = serum, po, 45 mg/kg, CD1 mouse, p.o. 45 mg/kg, read-out: PO-45mpk T1/2 (converted)
[7] = CD1, po, mouse, p.o. 45 mg/kg, brain, read-out: PO-45mpk AUClast-brain
[8] = CD1, po, mouse, p.o. 45 mg/kg, plasma, Tables 7 and 8, read-out: PO-45mpk AUClast-plasma
[9] = serum, iv, CD1 mouse, i.v. 2 mg/kg, read-out: IV-2mpk AUCInf
[10] = serum, iv, CD1 mouse, i.v. 2 mg/kg, read-out: IV-2mpk AUClast
[11] = serum, iv, CD1 mouse, i.v. 2 mg/kg
[12] = serum, po, CD1 mouse, p.o. 45 mg/kg, Tables 5 and 6, read-out: PO-45mpk AUClast
[13] = serum, po, CD1 mouse, p.o. 45 mg/kg, read-out: PO-45mpk AUCInf
[14] = serum, po, CD1 mouse, p.o. 45 mg/kg
[15] = EOC2 cells, 72 hours treatment, read-out: ECO2 EC50
[16] = read-out: CSF-1R BaF3 EC50 (nM)

Chain of CSF-1R (P07333 20-972): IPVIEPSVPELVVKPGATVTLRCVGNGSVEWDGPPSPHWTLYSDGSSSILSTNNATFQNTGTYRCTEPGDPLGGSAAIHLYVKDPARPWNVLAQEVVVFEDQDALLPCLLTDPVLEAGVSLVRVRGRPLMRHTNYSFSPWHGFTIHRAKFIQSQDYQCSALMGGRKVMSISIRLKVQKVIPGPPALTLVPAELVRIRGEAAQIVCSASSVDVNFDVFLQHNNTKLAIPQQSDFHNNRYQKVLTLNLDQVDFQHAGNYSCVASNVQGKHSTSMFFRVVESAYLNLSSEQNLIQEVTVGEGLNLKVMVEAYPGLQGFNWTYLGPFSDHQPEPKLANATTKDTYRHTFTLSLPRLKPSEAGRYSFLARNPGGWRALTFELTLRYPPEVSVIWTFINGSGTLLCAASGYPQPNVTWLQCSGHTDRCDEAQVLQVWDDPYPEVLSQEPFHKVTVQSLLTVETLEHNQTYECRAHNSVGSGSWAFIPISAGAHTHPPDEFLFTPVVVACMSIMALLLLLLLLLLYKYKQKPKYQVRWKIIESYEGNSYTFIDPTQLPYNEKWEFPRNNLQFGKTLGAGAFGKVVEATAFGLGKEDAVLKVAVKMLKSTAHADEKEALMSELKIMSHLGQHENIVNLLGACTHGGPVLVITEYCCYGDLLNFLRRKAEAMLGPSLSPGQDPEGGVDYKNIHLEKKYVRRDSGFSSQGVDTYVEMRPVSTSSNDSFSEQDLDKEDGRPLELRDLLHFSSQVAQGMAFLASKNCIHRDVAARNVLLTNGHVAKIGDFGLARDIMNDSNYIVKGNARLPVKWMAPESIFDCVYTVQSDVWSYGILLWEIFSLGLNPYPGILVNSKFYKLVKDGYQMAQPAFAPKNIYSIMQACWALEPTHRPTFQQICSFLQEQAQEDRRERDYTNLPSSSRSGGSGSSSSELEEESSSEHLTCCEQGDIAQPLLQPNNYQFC
Chain of c-Kit (P10721 26-976): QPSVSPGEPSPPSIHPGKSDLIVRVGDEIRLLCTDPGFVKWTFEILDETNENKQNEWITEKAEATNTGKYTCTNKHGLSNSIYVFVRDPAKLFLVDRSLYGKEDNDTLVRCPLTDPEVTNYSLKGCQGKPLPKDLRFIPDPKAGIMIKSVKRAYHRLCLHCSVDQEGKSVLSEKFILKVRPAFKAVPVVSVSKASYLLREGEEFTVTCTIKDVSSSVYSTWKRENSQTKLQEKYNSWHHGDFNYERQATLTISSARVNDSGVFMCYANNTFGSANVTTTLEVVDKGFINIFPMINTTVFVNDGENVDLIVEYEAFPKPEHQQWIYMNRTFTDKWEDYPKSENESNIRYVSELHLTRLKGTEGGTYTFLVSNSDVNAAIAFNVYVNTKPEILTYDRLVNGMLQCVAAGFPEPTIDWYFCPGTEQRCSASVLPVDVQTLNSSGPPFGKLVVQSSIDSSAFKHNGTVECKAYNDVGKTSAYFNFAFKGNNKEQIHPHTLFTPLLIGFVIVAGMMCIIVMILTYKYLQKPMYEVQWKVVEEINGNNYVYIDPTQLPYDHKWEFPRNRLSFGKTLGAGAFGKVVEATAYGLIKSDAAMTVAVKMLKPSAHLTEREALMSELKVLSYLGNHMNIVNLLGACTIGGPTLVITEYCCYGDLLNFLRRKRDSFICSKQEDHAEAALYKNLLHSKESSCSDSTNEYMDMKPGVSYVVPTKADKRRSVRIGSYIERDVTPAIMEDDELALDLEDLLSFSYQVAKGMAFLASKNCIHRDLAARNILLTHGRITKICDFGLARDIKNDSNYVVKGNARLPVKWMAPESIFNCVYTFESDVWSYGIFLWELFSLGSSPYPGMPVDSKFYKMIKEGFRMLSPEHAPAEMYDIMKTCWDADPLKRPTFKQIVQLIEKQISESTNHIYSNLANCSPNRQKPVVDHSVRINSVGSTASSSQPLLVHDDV
Chain of PDGFRβ (P09619 33-1106): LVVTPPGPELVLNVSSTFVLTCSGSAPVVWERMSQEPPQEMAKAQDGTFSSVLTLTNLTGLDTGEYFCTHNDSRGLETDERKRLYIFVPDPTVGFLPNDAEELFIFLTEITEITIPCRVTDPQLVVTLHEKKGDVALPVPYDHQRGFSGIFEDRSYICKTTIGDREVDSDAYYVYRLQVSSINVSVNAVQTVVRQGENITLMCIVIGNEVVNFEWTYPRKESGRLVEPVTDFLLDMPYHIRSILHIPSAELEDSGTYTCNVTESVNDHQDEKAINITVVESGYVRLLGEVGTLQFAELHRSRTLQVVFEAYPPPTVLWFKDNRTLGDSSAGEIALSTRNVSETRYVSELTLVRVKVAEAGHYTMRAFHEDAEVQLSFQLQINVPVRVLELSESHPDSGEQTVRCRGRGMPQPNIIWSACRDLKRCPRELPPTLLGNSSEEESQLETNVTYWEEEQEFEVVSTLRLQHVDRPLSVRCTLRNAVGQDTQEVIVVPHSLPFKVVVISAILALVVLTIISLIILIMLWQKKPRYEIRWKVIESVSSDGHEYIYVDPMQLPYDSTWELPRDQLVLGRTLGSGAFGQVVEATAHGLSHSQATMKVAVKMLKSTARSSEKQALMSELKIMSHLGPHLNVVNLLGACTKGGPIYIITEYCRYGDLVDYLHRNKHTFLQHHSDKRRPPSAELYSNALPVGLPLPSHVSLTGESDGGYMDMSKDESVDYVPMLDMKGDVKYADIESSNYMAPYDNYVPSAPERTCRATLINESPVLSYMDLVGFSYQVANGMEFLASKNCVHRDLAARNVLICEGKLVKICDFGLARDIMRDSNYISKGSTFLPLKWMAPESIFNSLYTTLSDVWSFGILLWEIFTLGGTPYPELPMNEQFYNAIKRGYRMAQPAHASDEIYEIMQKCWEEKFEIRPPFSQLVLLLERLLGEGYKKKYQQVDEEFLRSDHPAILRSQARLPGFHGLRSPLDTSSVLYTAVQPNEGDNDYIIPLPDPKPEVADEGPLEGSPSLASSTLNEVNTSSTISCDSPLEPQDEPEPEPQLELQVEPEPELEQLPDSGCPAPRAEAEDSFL
Chain of FLT3 (P36888 27-993): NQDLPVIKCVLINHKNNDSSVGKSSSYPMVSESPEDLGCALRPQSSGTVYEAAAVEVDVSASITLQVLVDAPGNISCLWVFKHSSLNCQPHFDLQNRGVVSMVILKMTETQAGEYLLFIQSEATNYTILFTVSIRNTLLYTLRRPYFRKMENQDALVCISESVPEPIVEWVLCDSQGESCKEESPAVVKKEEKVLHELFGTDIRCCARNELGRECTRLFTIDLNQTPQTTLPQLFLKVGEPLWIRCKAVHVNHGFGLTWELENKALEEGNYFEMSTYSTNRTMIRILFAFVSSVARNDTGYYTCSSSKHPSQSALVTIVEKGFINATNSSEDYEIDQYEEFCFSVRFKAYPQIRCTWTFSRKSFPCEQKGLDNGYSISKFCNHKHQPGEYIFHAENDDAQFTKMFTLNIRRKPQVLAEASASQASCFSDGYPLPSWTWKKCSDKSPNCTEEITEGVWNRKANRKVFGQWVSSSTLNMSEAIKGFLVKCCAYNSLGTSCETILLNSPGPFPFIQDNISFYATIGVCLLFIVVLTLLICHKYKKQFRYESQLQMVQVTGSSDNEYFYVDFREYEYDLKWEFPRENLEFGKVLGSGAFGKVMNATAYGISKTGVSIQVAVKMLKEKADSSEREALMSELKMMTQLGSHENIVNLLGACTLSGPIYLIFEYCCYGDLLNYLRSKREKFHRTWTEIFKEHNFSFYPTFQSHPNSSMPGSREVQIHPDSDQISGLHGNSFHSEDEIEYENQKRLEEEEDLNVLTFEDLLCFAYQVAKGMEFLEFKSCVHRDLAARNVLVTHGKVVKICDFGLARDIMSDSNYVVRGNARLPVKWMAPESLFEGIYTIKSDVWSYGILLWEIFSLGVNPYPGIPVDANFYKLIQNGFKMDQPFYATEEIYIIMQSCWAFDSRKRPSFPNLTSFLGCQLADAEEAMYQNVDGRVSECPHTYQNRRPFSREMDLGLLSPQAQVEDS

Row | SMILES | IC50 (CSF-1R; Table 2) | IC50 (CSF-1R; Table 3) | Kp uu ([2]; po, mouse, p.o. 45 mg/kg) | half-life [2, 5] | half-life [2, 6] | AUC(0-t) [2, 7] | AUC(0-t) [2, 8] | AUC(0-inf) [2, 9] | AUC(0-t) [2, 10] | clearance [2, 11] | Vd [2, 11] | bioavailability ([2]; serum, po, CD1 mouse) | AUC(0-t) [2, 12] | AUC(0-inf) [2, 13] | Cmax [2, 14] | Tmax [2, 14] | IC50 (PDGFRβ) | PDGFR-1β Fold (PDGFRβ) | IC50 (c-Kit) | BPB-mouse (Bound) (%) [3] | further results
1 | COc1ccc(COc2ncc(Cc3ccnc4cc(N5CCN(C)CC5)cnc34)cc2OC)nc1 [Example 116] | 3 nM | 3 nM | 0.99 | 6.42 h | 4.87 h | 4250 ng·h/mL | 4620 ng·h/mL | 578 ng·h/mL | 566 ng·h/mL | 57.7 mL/min/kg | 9.54 L/kg | 42.1% | 5370 ng·h/mL | 5480 ng·h/mL | 2310 ng/mL | 0.25 h | > 1000 nM | >100 fold | > 1000 nM | 95.5% | EC50 ([1]; Ba/F3_CSF-1R cells, 72 hours treatment, read-out: CSF-1R BaF3 EC50): 33.8 nM; cKit Fold (c-Kit): >100 fold; IC50 (FLT3; recombinant human protein): > 1000 nM; FLT3 Fold (FLT3; selectivity: IC50 of FLT3 as multiple of IC50 of CSF-1R): >100 fold; EC50 (EOC2 cell; [15]): 10 nM
2 | COc1ccc(COc2ncc(Cc3ccnc4cc(-c5ccn(C)n5)cnc34)cc2OC)nc1 [Example 134, 8-((5-methoxy-6-((5-methoxypyridin-2-yl)methoxy)pyridin-3-yl)methyl)-3-(1-methyl-1H-pyrazol-3-yl)-1,5-naphthyridine] | 6.6 nM | 6.6 nM | 0.75 | 1.39 h | 1.86 h | 44400 ng·h/mL | 88400 ng·h/mL | 1890 ng·h/mL | 1860 ng·h/mL | 17.7 mL/min/kg | 1.45 L/kg | 227% | 96400 ng·h/mL | 96500 ng·h/mL | 18100 ng/mL | 0.5 h | 394 nM | 59.7 fold |  | 98.8% | EC50 [1, 16]: 7.1 nM; hiPSC-MG survival IC50 compared with BLZ945 [4]: lower than that of BLZ945; hiPSC-MG survival [4]: dose-dependent inhibition of hiPSC-MG survival; primary rat microglia survival (primary rat microglia): dose-dependent inhibition of primary rat microglia survival; EC50 (EOC2 cell; [15]): 5.5 nM
3 | COc1cnc2c(Cc3cnc(OCc4cc5n(n4)C[C@H](OC)C5)c(OC)c3)ccnc2c1 [Example 136, (R)-3-methoxy-8-((5-methoxy-6-((5-methoxy-5,6-dihydro-4H-pyrrolo[1,2-b]pyrazol-2-yl)methoxy)pyridin-3-yl)methyl)-1,5-naphthyridine] | 5 nM | 5 nM | 0.94 | 0.777 h |  | 16200 ng·h/mL | 93200 ng·h/mL | 4940 ng·h/mL | 4940 ng·h/mL | 6.75 mL/min/kg | 0.274 L/kg | 77.1% | 85700 ng·h/mL |  | 51200 ng/mL | 0.5 h | > 1000 nM | >100 fold | > 1000 nM | 97.3% | EC50 [1, 16]: 66.2 nM; hiPSC-MG survival [4]: dose-dependent inhibition of hiPSC-MG survival; cKit Fold (c-Kit): >100 fold; primary rat microglia survival (primary rat microglia): dose-dependent inhibition of primary rat microglia survival; EC50 (EOC2 cell; read-out: ECO2 EC50 (nM)): 94.8 nM
